Results reported in US8138188B2, “Melanocortin type 4 receptor agonist piperidinoylpyrrolidines” (Pfizer Inc., priority 2006, dated 2012).

Experiments:
[1] = In vitro metabolism rate determination, rat liver microsome (RLM) assay; format: in vitro ADME; details: rat liver microsomes, substrate 1 μM; read-out: RLM (intrinsic clearance)
From the text: (§1) In vitro Metabolism Rate Determination (Human Liver Microsome (HLM); Rat Liver Microsome (RLM) Assay)
(§2) Many drugs are metabolised by the cytochrome P450 mono-oxygenase system. This enzyme is found in high concentrations in the liver and is bound to the endoplasmic reticulum of the hepatocyte. The enzyme system can be obtained in semi-purified state by the preparation of the hepatic microsomal fractions. Determining a compound's in vitro half-life in such a system provides a useful indicator of metabolic stability.
(§3) Methodology For In Vitro Rate Determination Using Hepatic & Supermix Microsomes
(§4) The method outlined below is for a total incubation volume of 1.5 ml.
(§5) 1. The following mixture is prepared in a test tube:
(§6) 2. Defrost microsomes at room temperature and add sufficient microsomes to give a final concentration of 0.5 nmol cytochrome P450/ml of incubation e.g. for a 1.5 ml incubation, the volume of microsomes to be added is:
(§7) [formula] 3. Add sufficient MilliQ water to give a total incubation volume of 1.425 ml. 4. Remove 237.5 μl of incubation mix and place in test tube for PNA positive control. Add 2.5 μl of PNA solution, whirlimix, and put tube into a rack in the thermostatically controlled shaking water bath 5. Remove 100 μl for no substrate control and dispense in test tube. Place test tube in a rack in the thermostatically controlled shaking water bath. 6. Add substrate to the incubation. The substrate should be at an initial concentration of 1 μM. The volume of substrate required in the remaining 1.162.5 ml incubation is calculated as follows:
(§8) [formula] • N.B. The volume of organic solvent added should not exceed 0.1% of the total incubation volume. 7. Remove 100 μl of incubation mix into test tube for no cofactor control. Whirlimix and put into a rack in the thermostatically controlled shaking water bath. 8. Pre-incubate the tube containing the incubation mix, also positive control and no cofactor tubes in the thermostatically controlled shaking water bath set at 37° C. for approx 5 min. 9. Add NADP to initiate reaction (75 μl to each 1.162.5 ml incubation mix, 12.5 μl to positive control tube and 5 μl to no substrate tube) and take first time point immediately. The PNA positive control, no cofactor control and no substrate tubes are incubated for the total incubation time. 10. Remove 100 μl aliquots up to 9 different sampling points from 0 to 60 min (usually 0, 3, 5, 10, 15, 20, 30, 45 & 60 min) and terminate reaction. Longer incubation times can be used, but, after 120 min the microsomes deteriorate. The reaction may be terminated by addition of organic solvent, acid or base. At the end of the incubation process the no cofactor and no substrate controls in a similar manner i.e. terminate with the same reagent. 11. PNA Positive Control Procedure: • After the final sample has been taken, remove the positive control and add 1 ml 20% TCA to this tube. Also prepare a tube containing 250 μl of a PNP standard at 50 μM, and add 1 ml 20% TCA. Whirlimix both tubes and leave for approx 5 min to allow the protein to precipitate. • Centrifuge both tubes for approx 5 min in an instrument set at 3500 rpm. Remove 1 ml of supernatant and place into clean test tubes, discard the remainder. • Add 1 ml 10M NaOH to the supernatant, whirlimix, and leave to stand for approx min. Blank spectrophotometer with distilled water at 400 nm then measure absorbance of the PNP standard against distilled water. The microsomal 4-nitroanisole O-demethylase activity is calculated as follows: Calculation of Results
(§9) [formula] • The activity value from the incubation MUST be equal to or greater than 85% of the mean value of the batch used for the incubation to be valid. If this criteria is not met, then the incubation must be repeated. 11. Analyse samples (including no cofactor and no substrate control) by a specific assay for the substrate to determine the disappearance kinetics. Analysis Of Data […]

CYP3A4 = biological target: T1, CYP3A4 (Homo sapiens, UniProt P08684); test: High density drug-drug interactions (DDI) 3 μM cocktail screen in human liver microsomes; format: in vitro ADME; details: 3 uM test compound, pooled human liver microsomes, probe midazolam 2 μM; read-out: % Inhibition of 3A4 metabolism at 3 uM
T1 construct: utilizes human liver microsomes together with isoform-specific clinical drug probes; from tissue; host or cells: human liver microsomes
T1 sequence (P08684 whole entry, canonical isoform): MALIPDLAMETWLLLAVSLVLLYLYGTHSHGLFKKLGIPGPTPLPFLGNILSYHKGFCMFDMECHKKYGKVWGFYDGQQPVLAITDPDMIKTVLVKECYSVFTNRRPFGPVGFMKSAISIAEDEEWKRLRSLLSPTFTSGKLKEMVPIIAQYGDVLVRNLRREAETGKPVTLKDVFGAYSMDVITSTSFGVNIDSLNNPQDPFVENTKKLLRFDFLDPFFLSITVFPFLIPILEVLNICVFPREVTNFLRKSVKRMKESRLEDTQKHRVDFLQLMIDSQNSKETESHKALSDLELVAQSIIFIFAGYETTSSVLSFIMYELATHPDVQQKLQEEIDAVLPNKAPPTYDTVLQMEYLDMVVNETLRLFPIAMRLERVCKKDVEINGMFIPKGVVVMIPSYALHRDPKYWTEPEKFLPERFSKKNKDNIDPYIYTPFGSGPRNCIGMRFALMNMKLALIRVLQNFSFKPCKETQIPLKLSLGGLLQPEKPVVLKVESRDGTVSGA
Experimental: High Density Drug-Drug Interactions (DDI) 3 μM Cocktail Screen
A drug interaction is a situation in which a substance affects the activity of another drug, i.e. the effects are increased or decreased, or together they produce a new effect that neither produces on its own. Drug interactions may be the result of various processes but a relatively common one is where one drug affects the pharmacokinetics of another by inhibiting the cytochrome P450 that metabolises it. Because of the importance of these phenomena, assessment of the DDI potential for new chemical entities (NCEs) is considered important early on in the drug discovery process.
The DDI cocktail screen in human liver microsomes (HLM) is run in a fully automated fashion and the aim of the screen is to provide a single-point assessment of the DDI potential of new chemical entity (NCE; tested at 3 μM) against the 4 primary cytochrome P450 enzymes, 1A2, 2D6, 2C9 and 3A4.
The substrate cocktail approach for P450 DDI utilizes human liver microsomes together with isoform-specific clinical drug probes and permits the simultaneous measurement of the inhibition of P450 1A2, 2C9, 2D6 & 3A4 activities in a single incubation. This is run in high throughput with simultaneous detection of metabolites by LC-MS/MS. This method has been thoroughly tested and evaluated using standard compounds.
Appearance of the metabolite of each substrate is measured over time in the presence and absence of the NCE (test compound/inhibitor) at a concentration of 3 μM. The compounds are assessed for their inhibitory potential as a percentage value and interpreted using the following scheme.

[2] = In vitro metabolism rate determination, human liver microsome (HLM) assay; format: in vitro ADME; details: human liver microsomes, substrate 1 μM; read-out: HLM (intrinsic clearance)
From the text: as §1, §2, §3, §4, §5, §6, §7, §8, §9

MC4 receptor (MC4R) = biological target: T2, MC4 receptor (MC4R) (Homo sapiens, UniProt P32245); test: AGRP inhibition: competition binding vs [125I]AGRP(87-132) at CHO-CRE MC4R cell membranes; details: vs 0.3 nM [125I]AGRP(87-132)
T2 construct: expressed in transfected cells; host or cells: CHO-CRE MC4R cells (membranes)
T2 sequence (P32245 whole entry): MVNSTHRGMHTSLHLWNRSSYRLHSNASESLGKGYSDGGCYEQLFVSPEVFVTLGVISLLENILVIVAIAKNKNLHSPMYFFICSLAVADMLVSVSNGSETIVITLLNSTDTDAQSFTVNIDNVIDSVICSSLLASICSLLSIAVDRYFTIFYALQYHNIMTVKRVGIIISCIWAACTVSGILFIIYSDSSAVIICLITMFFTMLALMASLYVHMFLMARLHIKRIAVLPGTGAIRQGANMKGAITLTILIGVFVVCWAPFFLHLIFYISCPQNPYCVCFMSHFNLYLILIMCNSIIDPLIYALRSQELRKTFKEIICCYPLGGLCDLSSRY
From the text: Agouti related protein (AGRP) is a high affinity endogenous antagonist/inverse agonist for the MC4 receptor (Lu et al., 1994, Nature 371: 799-802; Oilman et al., 1997, Science 278: 135-138). […] It has been ascertained that this C-terminal fragment of AGRP contains the MC4R binding determinants (Yang et al., 1999, Mol Endocrinol 13: 148-155), therefore, compounds can be evaluated for their ability to inhibit AGRP binding to membranes from cells expressing the MC4R using a competition binding assay versus [^125I]AGRP(87-132). To this end cells expressing the MC4R were subject to homogenisation and the membrane fragment isolated by differential centrifugation. CHO-CRE MC4R cell membranes (12 μg protein) were incubated with 0.3 nM [^125I]AGRP(87-132) and 11 half-log concentrations of competitor ligand, in duplicate, in a total volume of 100 μl buffer (25 mM HEPES, 1 mM MgCl2, 2.5 mM CaCl2, 0.5% BSA pH 7.0). Non-specific binding was determined by the inclusion of 1 μM SHU9119. The reaction was initiated by the addition of membranes and plates were incubated at room temperature for 2 hours. The reaction was terminated by rapid filtration onto GF/C filters (presoaked in 1% PEI) using a vacuum harvester followed by five 200 μl washes of ice cold wash buffer (Binding buffer containing 500 mM NaCl). The filters were soaked in 50 μl scintillation fluid and the amount of radioactivity present was determined by liquid scintillation counting. Ki values were determined by data analysis using appropriate software.

MC4 receptor = MC4 receptor (Homo sapiens, UniProt P32245); test: MC4 functional agonist potency (EC50), assay protocol E of US2005/0176772 / WO 2005/077935; format: cell-based; details: functional potency at the MC4 receptor
Sequence of MC4 receptor (P32245 whole entry): as above
Experimental: The compounds of formula (I) of the present invention have utility as MCR4 agonists in the treatment of various disease states.
MC5 and MC4 EC50 activity was determined as described by assay protocols D and E, respectively, in US2005/0176772 (pages 28-30).

human MC3 receptor = biological target: T3, human MC3 receptor (Homo sapiens, UniProt P41968); test: In vitro agonist potency (EC50) against melanocortin receptor type 3, cAMP in recombinant cell line; format: cell-based; details: cell line stably transfected with human MC3, 1 hour at 37° C.
T3 construct: stably transfected with full length cDNA encoding human MC1 or MC3 receptors; expressed in transfected cells; host or cells: Chinese hamster ovary cell line (MC3; 'respectively')
T3 sequence (P41968 whole entry): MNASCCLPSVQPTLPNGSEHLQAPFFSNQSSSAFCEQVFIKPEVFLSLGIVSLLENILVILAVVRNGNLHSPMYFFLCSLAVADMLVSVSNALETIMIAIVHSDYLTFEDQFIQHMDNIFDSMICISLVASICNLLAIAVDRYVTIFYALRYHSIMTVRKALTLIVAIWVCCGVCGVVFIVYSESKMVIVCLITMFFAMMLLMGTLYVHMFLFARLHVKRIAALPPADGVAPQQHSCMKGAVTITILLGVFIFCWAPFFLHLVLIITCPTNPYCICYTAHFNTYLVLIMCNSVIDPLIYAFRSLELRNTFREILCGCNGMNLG
Experimental: Measurement of In Vitro Agonist Potency (EC50) of Compounds Against Melanocortin Receptors Type 1 and 3 (MC1 and MC3).
Activation of melanocortin (MC) receptors by agonists results in activation of intracellular adenylate cyclase enzymes that synthesise the second messenger signalling molecule, adenosine 3′,5′-cyclic monophosphate (cAMP). Changes in cAMP levels following treatment of recombinant MC1 and MC3 cell lines with test compound were measured and an MC1 and MC3 potency estimate (EC50) calculated as follows: […]
Human embryonic kidney (HEK) or Chinese hamster ovary cell lines stably transfected with full length cDNA encoding human MC1 or MC3 receptors, respectively, were established using standard molecular biology methods. Test compounds were dissolved in dimethyl sulfoxide (DMSO) at 4 mM. 11 point half log unit increment dilution series of test compound, typically starting at 50 uM were prepared in a buffer comprised of phosphate buffered saline (PBS), 2.5% DMSO and 0.05% pluronic F-127 surfactant. Freshly cultured cells at 80-90% confluence were harvested and re-suspended in Dulbecco's Modified Eagle's Medium (DMEM). Cells (10,000 for MC3, 20,000 for MC1) were added to the test compound dilution series in a 384 well assay plate and incubated for 1 hour at 37° C. The relative cAMP concentration in each well was then measured using a β-galactosidase enzyme fragment complementation method purchased in kit form as the Discoverx cAMP II kit from GE Healthcare/Amersham Biosciences UK. In the case of MC1,3-Isobutyl-1-methylxanthine (IBMX) at a concentration of 750 μM was included in DMEM as the cells were re-suspended for assay. […] Sigmoidal curves were fitted to plots of log10 inhibitor concentration vs percent effect using a custom made software application called SIGHTS and EC50 estimates determined by the software as the concentration of test compound giving an effect half way between the bottom and top assymptopes of the sigmoidal dose response curve. Each experiment included an EC50 determination for alpha melanocyte stimulating hormone, which was used as a standard to track assay consistency and allow fair comparison between EC50 estimates obtained in different experiments.

SMILES	microsomal CLint at 1 μM [1]	inhibition at 3 μM (CYP3A4)	microsomal CLint at 1 μM [2]	Ki (MC4 receptor (MC4R))	EC50 (MC4 receptor)	EC50 (human MC3 receptor)
C[C@@H]1CN(C(=O)[C@@H]2CN(c3ccc(Cl)nn3)C[C@H]2c2ccc(F)cn2)C[C@H](C)[C@@]1(O)c1ccc(F)cc1 [Example 36]	17 µL/min/mg	59%	< 7 µL/min/mg	1.02 µM	0.168 µM	–
C[C@@H]1CN(C(=O)[C@@H]2CN(c3ccc(C#N)nn3)C[C@H]2c2ccc(F)cn2)C[C@H](C)[C@@]1(O)c1ccc(F)cc1 [Example 34]	< 8.5 µL/min/mg	50%	< 7 µL/min/mg	0.375 µM	0.0392 µM	–
C[C@@H]1CN(C(=O)[C@@H]2CN(c3ccc(Cl)nn3)C[C@H]2c2ccc(Cl)cn2)C[C@H](C)[C@@]1(O)c1ccc(F)cc1 [Example 3, (3R,4R,5S)-1-{[(3S,4S)-1-(6-Chloropyridazin-3-yl)-4-(5-chloropyridin-2-yl)pyrrolidin-3-yl]carbonyl}-4-(4-fluorophenyl)-3,5-dimethylpiperidin-4-ol]	< 19.8 µL/min/mg	60%	< 7 µL/min/mg	–	0.0119 µM	0.0164 µM
COc1ccc(C2CN(c3cncc(C#N)c3)CC2C(=O)N2CC(C)C(O)(c3ccc(F)cc3)C(C)C2)cn1 (stereo not drawn) [Example 15]	–	–	–	–	0.0539 µM	> 33.4 µM
COc1ccc(C2CN(c3cccnn3)CC2C(=O)N2CC(C)C(O)(c3ccccc3)C(C)C2)cn1 (stereo not drawn) [Example 12]	88.5 µL/min/mg	–	> 352 µL/min/mg	–	0.0916 µM	–
COc1ccc([C@@H]2CN(c3ccc(C#N)cn3)C[C@H]2C(=O)N2C[C@@H](C)[C@](O)(c3ccc(F)cc3)[C@@H](C)C2)cn1 [Example 14]	< 9.75 µL/min/mg	–	< 9 µL/min/mg	–	0.115 µM	0.129 µM
C[C@@H]1CN(C(=O)[C@@H]2CN(c3ccc(=O)[nH]n3)C[C@H]2c2ccc(F)cn2)C[C@H](C)[C@@]1(O)c1ccc(F)cc1 [Example 38]	< 8.5 µL/min/mg	58%	< 7 µL/min/mg	0.336 µM	0.102 µM	–
COc1ccc([C@@H]2CN(c3cncc(F)c3)C[C@H]2C(=O)N2C[C@@H](C)[C@](O)(c3ccc(F)cc3)[C@@H](C)C2)cn1 [Example 13]	–	6%	–	0.106 µM	0.0376 µM	1.02 µM
COc1ccc([C@@H]2CN(c3ccc(Cl)nn3)C[C@H]2C(=O)N2C[C@@H](C)[C@](O)(c3ccc(F)cc3)[C@@H](C)C2)nc1 [Example 44]	–	27%	–	2.13 µM	0.284 µM	> 9.63 µM
C[C@@H]1CN(C(=O)[C@@H]2CN(c3ccc(C#N)nn3)C[C@H]2c2ccc(Cl)cn2)C[C@H](C)[C@@]1(O)c1ccccc1 [Example 29]	36 µL/min/mg	59%	105 µL/min/mg	0.04 µM	0.00754 µM	–
COc1ccc([C@@H]2CN(c3cccnn3)C[C@H]2C(=O)N2C[C@@H](C)[C@](O)(c3ccc(F)cc3)[C@@H](C)C2)cn1 [Example 11]	–	–	14 µL/min/mg	0.417 µM	0.111 µM	–
